Publication PMC10877564, “Activity of Gut-Derived Nisin-like Lantibiotics against Human Gut Pathogens and Commensals” (ACS Chemical Biology, 2024)
No end group written: not given here.

Key:
[1] = Liposome permeabilization assay, liposomes without lipid II; type: biochemical; conditions: 375 nM lantibiotic; DOPC, 50 µM phospholipid; pyranine fluorescence, 30 min; three replicates; Figure S7
Description: (§1) To further investigate the mechanisms of action of these nisin-like lantibiotics, we performed liposome permeabilization assays using liposomes with or without lipid II (Figure S7).
(§2) Liposome Permeabilization Assay
(§3) To prepare pyranine encapsulated liposomes, DOPC (25 mg/mL in CHCl3, purchased from Avanti) was deposited into a vial and mixed with lipid II (dissolved in 2:1 CHCl3: MeOH, prepared chemoenzymatically).6 The solvent was removed using a stream of N2 leaving a thin film. Residual solvent was removed by storing it overnight in a vacuum desiccator. The film was rehydrated in buffer (5 mM Tricine, 5 mM MES, 5 mM NaCl, 1 mM pyranine pH = 6.0) and suspended with vortexing. The suspension was subjected to freeze-thaw three times before extrusion through a […] polycarbonate filter (21 passes). Excess pyranine was removed by passing the liposome solution through a Sephadex G-50 column previously equilibrated with buffer (5 mM Tricine, 5 mM MES, 5 mM NaCl, pH = 6.0). The eluted liposome solution containing the highest concentration of encapsulated pyranine (as determined visually with a UV lamp) was immediately placed on ice. Phospholipid concentration was determined by NMR as described previously.7 To measure liposome permeabilization, to a 96 well black polystyrene plate was added buffer (5 mM Tricine, 5 mM MES, 5 mM NaCl, pH = 8.0; 97 µL) and liposome solution (3 µL; 50 µM phospholipid concentration during assay). The wells were allowed to equilibrate for 8 min at room temperature then antibiotic was added. The antibiotic concentration in each well was 375 nM.
(§4) Pyranine fluorescence was monitored for 30 min then Triton X-100 was added to a final concentration of 0.1% and pyranine fluorescence was monitored for an additional 5 min. The pyranine fluorescence signal was max-min normalized. […]
(§5) Fig. S7 Liposome permeabilization assays of nisin-like lantibiotics. (A) Scheme of liposome […]
(§6) low fluorescence. Fluorescence increases upon liposome permeabilization and pH increase . (B) Fraction of liposomes permeabilized by lantibiotics (375 nM). Liposomes were composed of DOPC with or without 0.1 mol% lipid II. Error bars represent the standard of deviation of three […]
(§7) (1 picture or pasted object on this page, not shown here)

[2] = test system: panel of Gram-positive human pathogens (VRE, MRSA, MRSE, L. monocytogenes, C. difficile); assay: MIC assay against the panel of Gram-positive human pathogens; type: cell-based; conditions: pathogen panel, Figure 3A-E; anaerobic
From the text: Next, we set out to test the antimicrobial activities of these purified lantibiotics against a panel of Gram-positive bacteria that are representatives of some of the most prevalent human pathogens: VRE, Methicillin-resistant S. aureus USA300 (MRSA), Methicillin-resistant Staphylococcus epidermidis SK135 (MRSE), Listeria monocytogenes 10403S, and Clostridioides difficile VPI10463. We examined the growth of bacteria in a 96-well plate under a concentration gradient of lantibiotics under anaerobic conditions (Figure S2B).
(§8) Elution Buffer (4 M guanidine hydrochloride, 20 mM Tris HCl, pH 7.5 at 25 °C, 100 mM NaCl, 1 M imidazole). Peptides eluted from the Ni resin were concentrated and desalted using 3 kDa Amicon filters (Millipore). For leader peptide removal, the peptide (1:20 trypsin to peptide) was incubated with the trypsin protease in 50 mM Tris-HCl, pH 8 overnight at 37 °C. Lastly, the core peptides were further purified with HPLC using an Agilent 1200 instrument (Agilent) as specified in general methods. About 1.5 mg recombinant peptide was obtained after HPLC purification per […]
Purification of blauticin from Blautia producta SCSK
Stationary anaerobic culture of BPSCSK was inoculated 1:100 to 1 L BHIS. Culture was incubated on a heating plate at 37 °C with 220 rpm stirring for 2 days in an anaerobic chamber. Bacteria were pelleted with 15,000 x g centrifugation for 15 min. The supernatant was acidified with acetic acid to pH 5.5 and filtered through a 0.22 um filter. Filtered supernatant was loaded onto a HiTrap SP HP column using an AKTA Pure FPLC, which was eluted sequentially with 3 CV of distilled water, 200 mM NaCl, 400 mM NaCl, 600 mM NaCl, 800 mM NaCl, and 1 M NaCl. The 800 mM NaCl eluate was concentrated with a 3 kDa Amicon filter, followed by dialyzation with DPBS using a 3 kDa Amicon filter. Purification of blauticin was confirmed by SDS-PAGE, VRE inhibition in vitro assay, and MALDI-TOF MS. […]
(§9) For broth cultures, isolates were grown in pre-reduced BHI supplemented with 5 g/L yeast extract (Difco, BD) and 0.1% L-cysteine under anaerobic condition.
(§10) Minimal Inhibition Concentration (MIC) assay
(§11) All MIC assays were performed under anaerobic condition. Stationary bacterial culture in BHIS (BHI supplemented with 5 g/L yeast extract and 0.1% L-cysteine) were inoculated 1:100 to wells containing 200 µL BHIS in U-bottom 96-well plates. Lantibiotics were dissolved in DPBS, and concentrations were determined by BCA assay (Pierce) according to the manufacturer’s protocol.
Lantibiotic stock solutions were added to wells to reach desired final concentration, with 3-fold serial dilution across rows to create concentration gradients. Bacteria-inoculated wells without lantibiotics served as control. […]

[3] = Liposome permeabilization assay, liposomes with lipid II; type: biochemical; conditions: 375 nM lantibiotic; DOPC with 0.1 mol% lipid II, 50 µM phospholipid; pyranine fluorescence, 30 min, room temperature; three replicates; Figure S7B
Description: as §1, §2, §3, §4, §5, §6, §7

[4] = test system: C. comes MSK.11.23; assay: MIC assay, anaerobic broth dilution; type: cell-based, Coprococcus comes; conditions: Figure 3; anaerobic MIC assay
From the text: Antibiotic treatment may result in collateral damage to commensal bacteria in the human microbiome, leading to dysbiosis and susceptibility to various diseases.[44] How lantibiotics impact Gram-positive commensals from the human gut has remained unclear. Therefore, we performed antimicrobial activity tests of these lantibiotics against selected Gram-positive human gut commensals, most of which belong to the Lachnospiraceae family, one of the most abundant bacterial families in the human gut.[27] In general, human gut commensals were more susceptible to the set of investigated lantibiotics compared to pathogens (Figure 3). […]
Isolation of human gut commensal bacteria
Isolation and growth of commensal bacteria was done as previously reported.5 Briefly, fresh donor fecal samples were transferred into an anaerobic chamber (Coy Labs) within 1 h of collection. The anaerobic chamber was maintained using a gas mix consisting of 5% hydrogen, 5% carbon dioxide and 90% nitrogen, and hydrogen was maintained at ~3.0% using an anaerobic gas infuser. Fecal samples were resuspended in pre-reduced PBS and plated on Columbia blood agar or brain-heart infusion (BHI – Difco, BD) agar plates in three serial 10-fold dilutions and incubated at 37 °C for 48 – 96 h. Isolated colonies were re-streaked for purity onto Columbia blood agar and frozen in pre-reduced 10% glycerol in PBS.
as §9, §10, §11
Lantibiotic stock solutions were added to wells to reach desired final concentration, with 3-fold serial dilution across rows to create concentration gradients. Bacteria-inoculated wells without lantibiotics served as control. Plates were incubated at 37 °C for 48 h before being taken out of the anaerobic chamber for centrifugation. Plates were imaged with an iBright 1500 imager […]
pellets than those without lantibiotics were identified as MIC.

[5] = test system: Coprococcus eutactus MSK.18.32; assay: MIC assay, anaerobic broth dilution; type: cell-based; conditions: SAR study blauticin versus nisin O, Figure 4
From the text: (§12) Antibiotic treatment may result in collateral damage to commensal bacteria in the human microbiome, leading to dysbiosis and susceptibility to various diseases.[44] How lantibiotics impact Gram-positive commensals from the human gut has remained unclear. Therefore, we performed antimicrobial activity tests of these lantibiotics against selected Gram-positive human gut commensals, most of which belong to the Lachnospiraceae family, one of the most abundant bacterial families in the human gut.[27] In general, human gut commensals were more susceptible to the set of investigated lantibiotics compared to pathogens (Figure 3).
as §8
(§13) All MIC assays were performed under anaerobic condition. […] Lantibiotics were dissolved in DPBS, and concentrations were determined by BCA assay (Pierce) according to the manufacturer’s protocol. […]

[6] = test system: selected Gram-positive human gut commensals; assay: MIC assay against the panel of Gram-positive human gut commensals; type: cell-based; conditions: commensal panel, Figure 3F-M; anaerobic
From the text: as §12, §8, §13

Substance	permeabilization of liposomes without lipid II compared to liposomes with lipid II (in words) [1]	inhibitory activity against pathogens based on MIC (ranking in words) [2]	permeabilization of lipid II-containing liposomes (in words) [3]	sensitivity of C. comes MSK.11.23 to the lantibiotic (in words) [4]	inhibition (MIC) of C. eutactus, comparison in words [5]	antimicrobial activity against human gut commensals (ranking in words) [6]
nisin O	decreased permeabilization activities	nisin A and Lan-Df had the strongest inhibitory activities against pathogens based on their MIC, followed by nisin O	strongly induced permeabilization	relatively resistant		
MAKFDDFDLDVTKTAAGEGGVEPRITSKSLCTPGCVTGILMTCPVQTATCGCQITGK (also: bicyclic or more (positions not given here)) [blauticin, class I lantibiotic of Blautia producta SCSK, heterologously produced in E. coli in mixed dehydration states]	decreased permeabilization activities	intermediate activities	strongly induced permeabilization		lower MIC than nisin O	
MAKFDDFDLDVTKTAAQGGIEPKYKSKSVCTPGCPTGILMTCPLKTATCGCHITGK (also: bicyclic or more (positions not given here)) [Lan-Df, novel nisin-like class I lantibiotic from Dorea formicigenerans, close homologue of nisin O]	decreased permeabilization activities	strongest inhibitory activities	strongly induced permeabilization	relatively resistant		generally more effective in growth inhibition
